Source: ChEMBL document CHEMBL1201862, “PubChem BioAssay data set” (2004)
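Step 1: Grow cells in 96-well plates. Step 2: Expose to compound for 48 hours at 5 concentrations. Step 3: Interpolate endpoints linearly; if unreached, use highest concentration. GI50 = concentration required for 50% inhibition of growth.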 Calls of active or inactive are those of the source. No stated cut-off is given here; in the data, active = GI50 up to about 1.1 µM and inactive = higher.

Key:
Assay in all cases: DTP human tumour cell line panel, 48 h
[1] = tested on: MCF7
[2] = tested on: K562
[3] = tested on: PC-3
[4] = tested on: Malme-3M
[5] = tested on: HOP-62
[6] = tested on: SF-295
[7] = tested on: A498
[8] = tested on: NCI/ADR-RES
[9] = tested on: MDA-N
[10] = tested on: COLO 205
[11] = tested on: HCT-15
[12] = tested on: SK-MEL-5
[13] = tested on: LOX IMVI
[14] = tested on: EKVX
[15] = tested on: OVCAR-3
[16] = tested on: SNB-19
[17] = tested on: SNB-75
[18] = tested on: HOP-92
[19] = tested on: HCC 2998

SMILES	GI50 [1]	GI50 [2]	GI50 [3]	GI50 [4]	GI50 [5]	GI50 [6]	GI50 [7]	GI50 [8]	GI50 [9]	GI50 [10]	GI50 [11]	GI50 [12]	GI50 [13]	GI50 [14]	GI50 [15]	GI50 [16]	GI50 [17]	GI50 [18]	GI50 [19]
COc1cc2oc(=O)cc(C)c2c(OC)c1OC	> 100 µM (inactive)	> 100 µM (inactive)	> 100 µM (inactive)	> 100 µM (inactive)	> 100 µM (inactive)	> 100 µM (inactive)	30.8 µM (inactive)	> 100 µM (inactive)	> 100 µM (inactive)	> 100 µM (inactive)	> 100 µM	> 100 µM (inactive)	> 100 µM (inactive)	87.9 µM (inactive)	> 100 µM (inactive)	> 100 µM (inactive)	67.6 µM (inactive)	–	–
Clc1ccc(-c2nnc3c4nnc(-c5ccc(Cl)cc5Cl)n4c4ccccc4n23)c(Cl)c1	–	> 100 µM (inactive)	–	> 100 µM (inactive)	> 100 µM (inactive)	> 100 µM (inactive)	> 100 µM (inactive)	–	–	> 100 µM (inactive)	> 100 µM	> 100 µM (inactive)	> 100 µM (inactive)	> 100 µM (inactive)	> 100 µM (inactive)	63.5 µM (inactive)	26.5 µM (inactive)	92.3 µM (inactive)	> 100 µM (inactive)
COC(=O)/C(=N\NC(N)=O)C(C#N)c1ccccc1 (stereo unspecified)	–	> 100 µM (inactive)	–	> 100 µM (inactive)	> 100 µM (inactive)	> 100 µM (inactive)	> 100 µM (inactive)	–	–	> 100 µM (inactive)	> 100 µM	–	> 100 µM (inactive)	> 100 µM (inactive)	> 100 µM (inactive)	> 100 µM (inactive)	> 100 µM (inactive)	–	> 100 µM (inactive)
Cc1c2ccccc2cc2ccc3oc([N+](=O)[O-])cc3c12	–	> 100 µM (inactive)	–	> 100 µM (inactive)	> 100 µM (inactive)	> 100 µM (inactive)	5.6 µM (inactive)	–	–	> 100 µM (inactive)	> 100 µM	3.18 µM (inactive)	> 100 µM (inactive)	81.7 µM (inactive)	> 100 µM (inactive)	> 100 µM (inactive)	> 100 µM (inactive)	> 100 µM (inactive)	> 100 µM (inactive)
CC(C)=CCC/C(C)=C/Cc1c(O)c(C)cc2c1[nH]c1cc(O)ccc12	–	> 25 µM (inactive)	–	> 25 µM (inactive)	> 25 µM (inactive)	–	–	–	–	> 25 µM (inactive)	> 25 µM	> 25 µM (inactive)	> 25 µM (inactive)	–	> 25 µM (inactive)	> 25 µM (inactive)	–	> 25 µM (inactive)	> 25 µM (inactive)
N#Cc1nc(C2=C(Cl)c3ccccc3OC2)[nH]c1C#N	22.8 µM (inactive)	22.2 µM (inactive)	11 µM (inactive)	–	–	–	24.3 µM (inactive)	41.1 µM (inactive)	–	–	34.8 µM	19.1 µM (inactive)	16.9 µM (inactive)	31.5 µM (inactive)	27.7 µM (inactive)	29.8 µM (inactive)	–	14.9 µM (inactive)	16.3 µM (inactive)
COc1ccc(/C=C2\N=C(c3ccccc3)OC2=O)c(OCc2ccccc2)c1	–	32.1 µM (inactive)	–	39.4 µM (inactive)	20.5 µM (inactive)	17.9 µM (inactive)	16.3 µM (inactive)	–	–	84.9 µM (inactive)	–	19.8 µM (inactive)	39.3 µM (inactive)	> 100 µM (inactive)	19 µM (inactive)	28.4 µM (inactive)	–	–	> 100 µM (inactive)
O/N=C1\CCCCC1C(NO)c1ccccc1 (stereo unspecified)	–	> 100 µM (inactive)	–	> 100 µM (inactive)	> 100 µM (inactive)	> 100 µM (inactive)	> 100 µM (inactive)	–	–	> 100 µM (inactive)	> 100 µM	–	> 100 µM (inactive)	> 100 µM (inactive)	> 100 µM (inactive)	> 100 µM (inactive)	23.7 µM (inactive)	42.7 µM (inactive)	> 100 µM (inactive)
O=C(Cc1nc2ccccc2o1)C(=O)Nc1cccc(Cl)c1	–	> 100 µM (inactive)	–	> 100 µM (inactive)	> 100 µM (inactive)	> 100 µM (inactive)	> 100 µM (inactive)	–	–	> 100 µM (inactive)	> 100 µM	–	–	> 100 µM (inactive)	> 100 µM (inactive)	> 100 µM (inactive)	> 100 µM (inactive)	> 100 µM (inactive)	> 100 µM (inactive)
CN(C)CCCn1cnc2ncccc2c1=O	–	> 100 µM (inactive)	–	> 100 µM (inactive)	> 100 µM (inactive)	> 100 µM (inactive)	–	–	–	55.1 µM (inactive)	–	> 100 µM (inactive)	> 100 µM (inactive)	> 100 µM (inactive)	> 100 µM (inactive)	> 100 µM (inactive)	> 100 µM (inactive)	> 100 µM (inactive)	> 100 µM (inactive)
